According to the NIST ThermoML archive (doi:10.1007/s10765-010-0737-5):

Assay: xn = mol fraction of the nth substance listed
Conditions: Liquid; for viscosity: 101 kPa, Capillary tube (Ostwald / Ubbelohde) method; for mass density: 101.3 kPa

CCCCCl [1-chlorobutane] + CC(C)OC(C)C
Conditions	mass density [kg/m3]	viscosity [mPa·s]
283.15 K, x1 = 0.0466	740.095	0.3698
283.15 K, x1 = 0.0991	747.139	0.3755
283.15 K, x1 = 0.1918	759.833	0.3863
283.15 K, x1 = 0.3234	778.726	0.4028
283.15 K, x1 = 0.4199	793.339	0.4153
283.15 K, x1 = 0.516	808.586	0.4283
283.15 K, x1 = 0.623	826.434	0.4433
283.15 K, x1 = 0.7154	842.63	0.4568
283.15 K, x1 = 0.8157	861.003	0.4715
283.15 K, x1 = 0.9098	879.099	0.4857
283.15 K, x1 = 0.9559	888.28	0.4927
283.15 K, x1 = 1	897.339	0.4993
288.15 K, x1 = 0.0466	734.99	0.3535
288.15 K, x1 = 0.0991	741.966	0.359
288.15 K, x1 = 0.1918	754.629	0.3689
288.15 K, x1 = 0.3234	773.471	0.3838
288.15 K, x1 = 0.4199	788.055	0.3951
288.15 K, x1 = 0.516	803.274	0.4068
288.15 K, x1 = 0.623	821.073	0.4202
288.15 K, x1 = 0.7154	837.246	0.4321
288.15 K, x1 = 0.8157	855.588	0.4453
288.15 K, x1 = 0.9098	873.635	0.4579
288.15 K, x1 = 0.9559	882.81	0.4641
288.15 K, x1 = 1	891.855	0.4701
293.15 K, x1 = 0.0466	729.792	0.3385
293.15 K, x1 = 0.0991	736.75	0.3435
293.15 K, x1 = 0.1918	749.383	0.3528
293.15 K, x1 = 0.3234	768.192	0.3662
293.15 K, x1 = 0.4199	782.731	0.3763
293.15 K, x1 = 0.516	797.924	0.3868
293.15 K, x1 = 0.623	815.68	0.3988
293.15 K, x1 = 0.7154	831.821	0.4094
293.15 K, x1 = 0.8157	850.133	0.4212
293.15 K, x1 = 0.9098	868.142	0.4323
293.15 K, x1 = 0.9559	877.303	0.4379
293.15 K, x1 = 1	886.335	0.4433
298.15 K, x1 = 0.0466	724.56	0.3222
298.15 K, x1 = 0.0991	731.492	0.3273
298.15 K, x1 = 0.1918	744.091	0.336
298.15 K, x1 = 0.3234	762.854	0.3487
298.15 K, x1 = 0.4199	777.351	0.3583
298.15 K, x1 = 0.516	792.506	0.3682
298.15 K, x1 = 0.623	810.177	0.3793
298.15 K, x1 = 0.7154	826.321	0.3893
298.15 K, x1 = 0.8157	844.587	0.4003
298.15 K, x1 = 0.9098	862.556	0.411
298.15 K, x1 = 0.9559	871.691	0.4162
298.15 K, x1 = 1	880.705	0.4214
303.15 K, x1 = 0.0466	719.283	0.3048
303.15 K, x1 = 0.0991	726.204	0.3098
303.15 K, x1 = 0.1918	738.777	0.3188
303.15 K, x1 = 0.3234	757.526	0.3318
303.15 K, x1 = 0.4199	771.984	0.3415
303.15 K, x1 = 0.516	787.119	0.3514
303.15 K, x1 = 0.623	804.761	0.3628
303.15 K, x1 = 0.7154	820.882	0.3726
303.15 K, x1 = 0.8157	839.124	0.3837
303.15 K, x1 = 0.9098	857.076	0.3944
303.15 K, x1 = 0.9559	866.204	0.3998
303.15 K, x1 = 1	875.204	0.405
308.15 K, x1 = 0.0466	713.967	0.2903
308.15 K, x1 = 0.0991	720.87	0.2953
308.15 K, x1 = 0.1918	733.414	0.3043
308.15 K, x1 = 0.3234	752.126	0.317
308.15 K, x1 = 0.4199	766.553	0.3266
308.15 K, x1 = 0.516	781.656	0.3362
308.15 K, x1 = 0.623	799.266	0.3472
308.15 K, x1 = 0.7154	815.358	0.3569
308.15 K, x1 = 0.8157	833.567	0.3677
308.15 K, x1 = 0.9098	851.486	0.3781
308.15 K, x1 = 0.9559	860.595	0.3833
308.15 K, x1 = 1	869.585	0.3885
313.15 K, x1 = 0.0466	708.604	0.2765
313.15 K, x1 = 0.0991	715.486	0.2811
313.15 K, x1 = 0.1918	728.002	0.2891
313.15 K, x1 = 0.3234	746.649	0.3005
313.15 K, x1 = 0.4199	761.063	0.309
313.15 K, x1 = 0.516	776.136	0.3175
313.15 K, x1 = 0.623	793.704	0.3274
313.15 K, x1 = 0.7154	809.769	0.3359
313.15 K, x1 = 0.8157	827.935	0.3456
313.15 K, x1 = 0.9098	845.816	0.3548
313.15 K, x1 = 0.9559	854.913	0.3594
313.15 K, x1 = 1	863.882	0.3642
